Data reported in patent US8026218B2, “Bifunctional analgesic compounds for opioid receptor agonists and neurokinin-1 receptor antagonists” (The University of Arizona, priority 2006, dated 2011).
Read-outs that look alike come from different tables or passages of the source. Peptide text beside a SMILES is read from it.

Assays:
[1] = In vitro stability in rat plasma at 37° C.; type: in vitro ADME; details: rat, rat plasma, read-out: half life (T1/2) in rat plasma (converted)
Description: The derivative compounds were tested for their metabolite stability. The compounds were incubated in rat plasma at 37° C., and aliquots were withdrawn at various time points and analyzed by HPLC to determine the concentration of remaining compound derivatives (FIGS. 15-16, 36, and 47-48).
In Vitro Stability of compound derivatives in Rat Plasm (Yamamoto, 2007, J. Am. Chem. Soc. submitted). Stock solution of compounds (50 mg/mL in DMSO) were diluted 1000-fold into rat plasma (Lot 24927, Pel-Freez Biologicals, Rogers, Ak.) to result in an incubation concentration of 50 μg/mL. All samples were incubated at 37° C. for 6 h, and 200 μL of aliquots were withdrawn at 1 h, 2 h, 4 h and 6 h. […] The samples were run in triplicate. Discussion.

rat NK1 (rNK1) receptor = target: T1, rat NK1 (rNK1) receptor (Rattus norvegicus, UniProt P14600); assay: Radioligand competition binding, [3H]substance P, rNK1/CHO membranes; details: for IC50: LogIC50, rNK1, [3H]Substance P, logarithm of IC50 (negative), CHO cell membranes
T1 construct: expressed in transfected cells; host or cells: CHO (rNK-1/CHO cell line from Dr. James Krause)

[2] = target: T2, human δ opioid receptors (hDOR) (Homo sapiens, UniProt P41143); assay: [35S]GTP-γ-S binding assay, hDOR; type: biochemical
T2 construct: expressed in transfected cells; host or cells: HN9.10 neuroblastoma cell line, pCDNA3, neomycin-selected clones

[3] = target: T3, rat μ opioid receptors (rMOR) (Rattus norvegicus, UniProt P33535); assay: biochemical; type: biochemical
T3 construct: expressed in transfected cells; host or cells: HN9.10 neuroblastoma cell line, pCDNA3, neomycin-selected clones

[4] = target: T2, human δ opioid receptors (hDOR); assay: Radioligand competition binding, [3H]DPDPE, hDOR membranes
[5] = target: T4, Substance P receptors (guinea pig NK1) (Cavia porcellus, UniProt P30547); assay: Guinea pig isolated ileum (GPI) assay with substance P stimulation in presence of 1 μM naloxone
T4 construct: from tissue; host or cells: guinea pig (Hartley) ileum LMMP, 1 μM naloxone present

μ opioid receptors (GPI) = assay: Guinea pig isolated ileum (GPI) assay, opioid agonist;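 for all read-outs here: inhibition of electrically evoked contractions (0.1 Hz, 0.4 msec, supramaximal voltage) in organ baths at 37 °C, contraction height 3 min after each cumulative dose versus the 1 min before dosing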; details: for Opioid agonist GPI (μ), % inh.: Table 22, no antagonist activity observed at the tested concentration; for Opioid agonist GPI (μ), % inh. / GPI/LMMP opioid(mu) agonist, % at 1 uM: at 1 uM; for agonist effect in the functional assay using GPI: at the concentration of 1 μM, words
[6] = target: T3, rat μ opioid receptors (rMOR); assay: Radioligand competition binding, [3H]DAMGO, rMOR membranes
δ opioid receptors (MVD) = target: T5, δ opioid receptors (MVD) (Mus musculus, UniProt P32300); assay: Mouse isolated vas deferens (MVD) assay, opioid agonist
T5 construct: from tissue; host or cells: mouse (ICR) isolated vas deferens

[7] = target: T6, human NK1 receptor (hNK1) (Homo sapiens, UniProt P25103); assay: Radioligand competition binding, [3H]-Substance P, hNK1
T6 construct: expressed in transfected cells

[8] = Table 39, read-out: Affinity rNK1 (Ki; nM)
[9] = Table 21, HN9.10 cell, read-out: EC50 (nM), hDOR
[10] = Table 39, read-out: GTP binding hDOR EC50
[11] = Table 39, read-out: GTP binding hDOR Emax
[12] = Table 21, net total bound/basal binding × 100, read-out: Emax (%), rMOR
[13] = Table 39, read-out: GTP binding rMOR EC50
[14] = Table 39, read-out: GTP binding rMOR Emax
[15] = net total bound/basal binding × 100, read-out: Emax, rMOR, [35S]GTP-γ-S binding
[16] = electrically stimulated isolated tissue, read-out: MVD (δ), IC50
[17] = Table 21, net total bound/basal binding × 100, read-out: Emax (%), hDOR

T6 sequence (P25103 whole entry): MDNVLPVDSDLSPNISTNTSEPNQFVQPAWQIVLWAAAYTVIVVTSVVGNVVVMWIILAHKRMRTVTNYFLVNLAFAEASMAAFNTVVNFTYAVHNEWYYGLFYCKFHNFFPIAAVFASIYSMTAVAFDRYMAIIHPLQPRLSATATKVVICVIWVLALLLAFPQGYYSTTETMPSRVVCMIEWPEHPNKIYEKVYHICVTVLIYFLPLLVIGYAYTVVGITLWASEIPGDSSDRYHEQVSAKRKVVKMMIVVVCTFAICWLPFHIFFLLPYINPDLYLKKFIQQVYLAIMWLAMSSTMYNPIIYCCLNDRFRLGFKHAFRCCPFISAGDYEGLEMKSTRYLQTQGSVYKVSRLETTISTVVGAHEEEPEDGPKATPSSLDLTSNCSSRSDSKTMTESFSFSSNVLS
T3 sequence (P33535 whole entry): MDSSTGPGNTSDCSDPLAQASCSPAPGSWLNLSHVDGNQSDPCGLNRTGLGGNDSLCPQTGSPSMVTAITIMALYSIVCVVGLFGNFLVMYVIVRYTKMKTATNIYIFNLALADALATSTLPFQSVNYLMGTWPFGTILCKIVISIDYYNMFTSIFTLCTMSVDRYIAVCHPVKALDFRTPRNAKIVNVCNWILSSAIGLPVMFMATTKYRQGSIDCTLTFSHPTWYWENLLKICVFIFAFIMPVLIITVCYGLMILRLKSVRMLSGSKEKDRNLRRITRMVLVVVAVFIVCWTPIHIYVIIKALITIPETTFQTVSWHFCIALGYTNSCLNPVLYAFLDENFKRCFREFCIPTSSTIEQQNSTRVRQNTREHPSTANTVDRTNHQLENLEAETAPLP
T2 sequence (P41143 whole entry): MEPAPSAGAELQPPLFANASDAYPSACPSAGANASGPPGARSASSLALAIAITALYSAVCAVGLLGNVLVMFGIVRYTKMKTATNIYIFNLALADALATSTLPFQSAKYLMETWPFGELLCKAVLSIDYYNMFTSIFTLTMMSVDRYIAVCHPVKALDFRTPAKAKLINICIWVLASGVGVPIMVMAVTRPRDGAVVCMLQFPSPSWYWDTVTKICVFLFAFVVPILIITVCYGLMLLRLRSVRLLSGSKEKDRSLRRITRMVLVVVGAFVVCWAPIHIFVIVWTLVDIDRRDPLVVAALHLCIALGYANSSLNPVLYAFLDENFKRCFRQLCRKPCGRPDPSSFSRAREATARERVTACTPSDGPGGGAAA
T5 sequence (P32300 whole entry): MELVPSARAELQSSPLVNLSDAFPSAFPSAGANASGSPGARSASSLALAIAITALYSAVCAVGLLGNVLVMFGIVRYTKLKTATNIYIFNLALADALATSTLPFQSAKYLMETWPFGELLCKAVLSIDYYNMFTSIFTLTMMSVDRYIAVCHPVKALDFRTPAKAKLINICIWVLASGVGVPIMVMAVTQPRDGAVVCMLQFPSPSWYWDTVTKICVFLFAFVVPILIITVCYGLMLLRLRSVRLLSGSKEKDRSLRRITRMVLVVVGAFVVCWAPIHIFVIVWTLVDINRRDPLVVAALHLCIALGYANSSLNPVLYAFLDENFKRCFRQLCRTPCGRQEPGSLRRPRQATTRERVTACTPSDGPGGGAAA
T4 sequence (P30547 whole entry): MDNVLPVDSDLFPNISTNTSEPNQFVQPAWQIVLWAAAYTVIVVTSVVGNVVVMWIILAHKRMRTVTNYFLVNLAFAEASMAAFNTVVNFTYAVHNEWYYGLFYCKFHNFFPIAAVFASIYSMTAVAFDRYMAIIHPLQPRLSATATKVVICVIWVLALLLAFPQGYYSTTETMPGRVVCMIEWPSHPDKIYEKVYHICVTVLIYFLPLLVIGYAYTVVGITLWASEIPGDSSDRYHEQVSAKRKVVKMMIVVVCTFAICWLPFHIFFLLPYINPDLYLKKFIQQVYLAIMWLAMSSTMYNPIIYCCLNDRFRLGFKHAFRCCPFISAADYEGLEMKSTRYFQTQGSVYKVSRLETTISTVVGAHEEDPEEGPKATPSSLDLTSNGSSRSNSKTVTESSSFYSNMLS
T1 sequence (P14600 whole entry): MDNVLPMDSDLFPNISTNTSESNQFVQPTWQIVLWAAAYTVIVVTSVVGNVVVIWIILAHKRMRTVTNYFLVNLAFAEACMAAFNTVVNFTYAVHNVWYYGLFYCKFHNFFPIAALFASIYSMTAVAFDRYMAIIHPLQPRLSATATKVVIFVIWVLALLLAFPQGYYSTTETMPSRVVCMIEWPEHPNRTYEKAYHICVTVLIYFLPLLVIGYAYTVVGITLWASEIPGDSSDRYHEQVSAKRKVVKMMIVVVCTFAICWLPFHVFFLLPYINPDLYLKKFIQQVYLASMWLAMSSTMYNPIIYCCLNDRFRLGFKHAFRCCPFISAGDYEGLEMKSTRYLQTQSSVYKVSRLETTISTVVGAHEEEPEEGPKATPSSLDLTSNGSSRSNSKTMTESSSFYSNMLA

SMILES	half-life at 50 μg/mL [1] [h]	IC50 (rat NK1 (rNK1) receptor; Table 20) [nM]	Ki (rat NK1 (rNK1) receptor; [8]) [nM]	EC50 [2, 9] [nM]	EC50 [2, 10] [nM]	Emax [2, 11] [%]	Emax [3, 12] [%]	EC50 [3, 13] [nM]	Emax [3, 14] [%]	Emax [3, 15] [%]	IC50 [4] [nM]	IC50 [6] [nM]	Ki ([6]; read-out: Ki, rMOR, [3H]DAMGO) [nM]	IC50 (δ opioid receptors (MVD); [16]) [nM]	Emax [2, 17] [%]	Opioid agonist GPI (μ), % inh. (μ opioid receptors (GPI)) [% inh. at 1 uM^d]	GPI/LMMP opioid(mu) Antagonist (μ opioid receptors (GPI); Table 39)	GPI/LMMP opioid(mu) agonist, % at 1 uM (μ opioid receptors (GPI); Table 39) [% at]	agonist effect in the functional assay using GPI (μ opioid receptors (GPI))	further results
CC(C)C[C@H](NC(=O)[C@@H]1CCCN1C(=O)[C@H]1CSSC[C@@H](NC(=O)[C@@H](N)Cc2ccc(O)cc2)C(=O)NCC(=O)N[C@@H](Cc2ccccc2)C(=O)N1)C(=O)N[C@@H](Cc1c[nH]c2ccccc12)C(=O)NCc1cc(C(F)(F)F)cc(C(F)(F)F)c1 [TY037, [D-Cys^2, D-Cys^5]TY027]	3.7	126	45.5	14	98.2	26	12	52.9	8	< 20	15.8	126	52	8.3	–	–	–	–	–	Ki ([4]; Table 39, read-out: Affinity hDOR (Ki; nM)): 7.8 nM; Ki ([4]; read-out: Ki (nM), hDOR, [3H]DPDPE, Table 20, HN9.10 cell membranes): 7.8 nM; Substance P antagonist, GPI, Ke ([5]; in the presence of 1 μM naloxone): 4.7 nM; IC50 (μ opioid receptors (GPI); Table 39, read-out: GPI/LMMP opioid(mu) agonist (IC50; nM)): 284 nM; IC50 (μ opioid receptors (GPI); electrically stimulated isolated tissue, read-out: GPI (μ), IC50): 280 nM
CCCC[C@@H]1NC(=O)[C@H](Cc2ccccc2)NC(=O)CNC(=O)[C@H](NC(=O)[C@@H](N)Cc2ccc(O)cc2)CSSC[C@H](C(=O)N[C@@H](Cc2c[nH]c3ccccc23)C(=O)NCc2cc(C(F)(F)F)cc(C(F)(F)F)c2)NC(=O)[C@@H]2CCCN2C1=O [TY038, [D-Cys^2, D-Cys^7]TY027] (HELM PEPTIDE1{Y.[dC].G.F.[Nle].P.[dC].W.[FC(F)(F)c1cc(CN[*:1])cc(C(F)(F)F)c1]}$PEPTIDE1,PEPTIDE1,2:R3-7:R3$$$V2.0; N-terminus assumed)	> 6	20	7.11	–	14	87	–	–	–	–	126	1.58	160	19	87	3	none	3	nearly no agonist effect	Ki(hNK1)/Ki(rNK1) (rat NK1 (rNK1) receptor; Table 20, species ratio): 28; Ki (rat NK1 (rNK1) receptor; read-out: Ki, rNK1): 7.1 nM; Emax ([2]; net total bound/basal binding × 100, read-out: Emax, hDOR, [35S]GTP-γ-S binding): 87%; EC50 ([3]; LogEC50, rMOR): 20 nM; Emax ([3]; read-out: Emax (%), rMOR): 12%; Emax ([3]; read-out: Emax, rMOR, [35S]GTP-γ-S binding): < 20%; EC50 ([3]; read-out: GTP binding rMOR EC50): 21.7 nM; Emax ([3]; read-out: GTP binding rMOR Emax): 11%; Ki [4]: 55.5 nM; Kb ([5]; Substance P antagonist, GPI, Ke (nM), Table 22, in the presence of 1 μM naloxone): 12 ± 1.4 nM; GPI/LMMP SP Agonist (IC50; nM) ([5]; Table 39, at 100 nM): none; Ki [6]: 156 nM; Ki(μ)/Ki(δ) ([6]; Table 20, ratio rMOR Ki / hDOR Ki): 2.9; IC50 (δ opioid receptors (MVD); Table 39, read-out: MVD opioid(delta) agonist (IC50; nM)): 18.9 nM; IC50 [7]: 0.501 nM; Ki [7]: 0.24 nM; Ki ([7]; read-out: Ki, hNK1): 0.25 nM
CC(C)C[C@H](NC(=O)[C@@H]1CCCN1C(=O)[C@@H]1CSSC[C@@H](NC(=O)[C@@H](N)Cc2ccc(O)cc2)C(=O)NCC(=O)N[C@@H](Cc2ccccc2)C(=O)N1)C(=O)N[C@@H](Cc1c[nH]c2ccccc12)C(=O)NCc1cc(C(F)(F)F)cc(C(F)(F)F)c1 [TY039]	> 6	1580	–	0.9	50.9	37	17	118	20	< 20	25.1	398	200	73	37	10	none	10.1	nearly no agonist effect	EC50 ([3]; Table 21, HN9.10 cell, read-out: EC50 (nM), rMOR): 118 nM; EC50 ([3]; Table 21, logarithm of EC50 (negative), HN9.10 cell, read-out: LogEC50, rMOR (converted)): 126 nM
